Assay results as given in PubChem BioAssay AID2060602 (Molecular Pharmacology Branch, DTP, NCI, 2025).

System: 648629-189-R-J1-PDC complex spheroids viability
Test: Anticancer human tumor 648629-189-R-J1-PDC patient-derived bladder carcinoma cell line growth inhibition [CLK]
Conditions: for IC50: curve of first compound; for viability, T/C: stronger effect = lower value
Summary of the method: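 Patient-derived tumor cells grown as complex spheroids with HUVEC endothelial cells and mesenchymal stem cells, treated with drug combinations. Concentrations descend in half-log steps from near clinical Cmax, or from 10 microM if Cmax unknown.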

[1] = second compound 0.0316 µM, first compound 0.00316 µM
[2] = second compound 0.0316 µM, first compound 0.01 µM
[3] = second compound 0.0316 µM, first compound 0.0316 µM
[4] = second compound 0.0316 µM, first compound 0.1 µM
[5] = second compound 0.0316 µM, first compound 0.316 µM
[6] = second compound 0.0316 µM, first compound 1 µM
[7] = second compound 0.1 µM, first compound 0.00316 µM
[8] = second compound 0.1 µM, first compound 0.01 µM
[9] = second compound 0.1 µM, first compound 0.0316 µM
[10] = second compound 0.1 µM, first compound 0.1 µM
[11] = second compound 0.1 µM, first compound 0.316 µM
[12] = second compound 0.1 µM, first compound 1 µM
[13] = second compound 0.316 µM, first compound 0.00316 µM
[14] = second compound 0.316 µM, first compound 0.01 µM
[15] = second compound 0.316 µM, first compound 0.0316 µM
[16] = second compound 0.316 µM, first compound 0.1 µM
[17] = second compound 0.316 µM, first compound 0.316 µM
[18] = second compound 0.316 µM, first compound 1 µM
[19] = second compound 1 µM, first compound 0.00316 µM
[20] = second compound 1 µM, first compound 0.01 µM
[21] = second compound 1 µM, first compound 0.0316 µM
[22] = second compound 1 µM, first compound 0.1 µM
[23] = second compound 1 µM, first compound 0.316 µM
[24] = second compound 1 µM, first compound 1 µM
[25] = second compound 3.16 µM, first compound 0.00316 µM
[26] = second compound 3.16 µM, first compound 0.01 µM
[27] = second compound 3.16 µM, first compound 0.0316 µM
[28] = second compound 3.16 µM, first compound 0.1 µM
[29] = second compound 3.16 µM, first compound 0.316 µM
[30] = second compound 3.16 µM, first compound 1 µM
[31] = second compound 10 µM, first compound 0.00316 µM
[32] = second compound 10 µM, first compound 0.01 µM
[33] = second compound 10 µM, first compound 0.0316 µM
[34] = second compound 10 µM, first compound 0.1 µM
[35] = second compound 10 µM, first compound 0.316 µM
[36] = second compound 10 µM, first compound 1 µM
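Throughout, for viability, T/C: drug exposure lasted seven days before viability readout; 100% = DMSO vehicle control wells.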

With `CCN1CCN(Cc2ccc(Nc3ncc(F)c(-c4cc(F)c5nc(C)n(C(C)C)c5c4)n3)nc2)CC1` + CNC(=O)c1ccc(Nc2nc(OC3CCCC3)c3c(-c4ccc5nc(C)oc5c4)c[nH]c3n2)c(OC)c1 the IC50 (second compound 0.0316 µM) was > 1 µM, the IC50 (second compound 0.1 µM) was > 1 µM and the IC50 (second compound 0.316 µM) was < 0.00316 µM. For the same molecule, the IC50 (second compound 1 µM) was < 0.00316 µM, the IC50 (second compound 3.16 µM) was < 0.00316 µM and the IC50 (second compound 10 µM) was < 0.00316 µM. The viability, T/C [1] was 98.4%, the viability, T/C [2] was 103% and the viability, T/C [3] was 107%. It also gave a viability, T/C [4] of 100%, a viability, T/C [5] of 113% and a viability, T/C [6] of 136%. For the same molecule, the viability, T/C [7] was 81.3%, the viability, T/C [8] was 92.8% and the viability, T/C [9] was 104%. It also gave a viability, T/C [10] of 80.7%, a viability, T/C [11] of 102% and a viability, T/C [12] of 129%. For the same molecule, the viability, T/C [13] was 30.2%, the viability, T/C [14] was 28.1% and the viability, T/C [15] was 24.2%. It also gave a viability, T/C [16] of 28.4%, a viability, T/C [17] of 36.4% and a viability, T/C [18] of 39.6%. For the same molecule, the viability, T/C [19] was 17.2%, the viability, T/C [20] was 23% and the viability, T/C [21] was 19.1%. For the same molecule, the viability, T/C [22] was 24.1%, the viability, T/C [23] was 21.5% and the viability, T/C [24] was 31.1%. The viability, T/C [25] was 18.2%, the viability, T/C [26] was 18.6% and the viability, T/C [27] was 20.9%. It also gave a viability, T/C [28] of 17.8%, a viability, T/C [29] of 23.9% and a viability, T/C [30] of 25.1%. For the same molecule, the viability, T/C [31] was 16.2%, the viability, T/C [32] was 18.9% and the viability, T/C [33] was 18.1%. For the same molecule, the viability, T/C [34] was 18.9%, the viability, T/C [35] was 24.3% and the viability, T/C [36] was 23.8%.
For `CC(=O)O[C@H]1C(=O)[C@@]2(C)[C@H]([C@H](OC(=O)c3ccccc3)[C@]3(O)C[C@H](OC(=O)[C@H](O)[C@@H](NC(=O)c4ccccc4)c4ccccc4)C(C)=C1C3(C)C)[C@]1(OC(C)=O)CO[C@@H]1C[C@@H]2O` + CNC(=O)c1ccc(Nc2nc(OC3CCCC3)c3c(-c4ccc5nc(C)oc5c4)c[nH]c3n2)c(OC)c1, the IC50 (second compound 0.0316 µM) was < 0.0316 µM, the IC50 (second compound 0.1 µM) was < 0.0316 µM and the IC50 (second compound 0.316 µM) was < 0.0316 µM. The IC50 (second compound 1 µM) was < 0.0316 µM, the IC50 (second compound 3.16 µM) was < 0.0316 µM and the IC50 (second compound 10 µM) was < 0.0316 µM. For the same molecule, the viability, T/C [3] was 11.1%, the viability, T/C [4] was 9.61% and the viability, T/C [5] was 10%. The viability, T/C [6] was 12.1%, the viability, T/C (second compound 0.0316 µM, first compound 3.16 µM) was 14.1% and the viability, T/C (second compound 0.0316 µM, first compound 10 µM) was 15.9%. For the same molecule, the viability, T/C [9] was 13.8%, the viability, T/C [10] was 12.4% and the viability, T/C [11] was 11.7%. For the same molecule, the viability, T/C [12] was 12.5%, the viability, T/C (second compound 0.1 µM, first compound 3.16 µM) was 13% and the viability, T/C (second compound 0.1 µM, first compound 10 µM) was 28.7%. For the same molecule, the viability, T/C [15] was 40.7%, the viability, T/C [16] was 50.4% and the viability, T/C [17] was 62.9%. The viability, T/C [18] was 70.5%, the viability, T/C (second compound 0.316 µM, first compound 3.16 µM) was 76.1% and the viability, T/C (second compound 0.316 µM, first compound 10 µM) was 97.3%. For the same molecule, the viability, T/C [21] was 40.6%, the viability, T/C [22] was 64.3% and the viability, T/C [23] was 58.8%. It also gave a viability, T/C [24] of 66.5%, a viability, T/C (second compound 1 µM, first compound 3.16 µM) of 75% and a viability, T/C (second compound 1 µM, first compound 10 µM) of 76.9%. The viability, T/C [27] was 33.9%, the viability, T/C [28] was 47.7% and the viability, T/C [29] was 74.3%. It also gave a viability, T/C [30] of 64.2%, a viability, T/C (second compound 3.16 µM, first compound 3.16 µM) of 67.5% and a viability, T/C (second compound 3.16 µM, first compound 10 µM) of 72.7%. It also gave a viability, T/C [33] of 39.9%, a viability, T/C [34] of 42.5% and a viability, T/C [35] of 59.8%. The viability, T/C [36] was 64.4%, the viability, T/C (second compound 10 µM, first compound 3.16 µM) was 65.7% and the viability, T/C (second compound 10 µM, first compound 10 µM) was 73.2%.
With `Cn1ncnc1[C@H]1c2n[nH]c(=O)c3cc(F)cc(c23)N[C@@H]1c1ccc(F)cc1` + CN1CCN(c2cc(C(=O)Nc3cc4cc(-c5cnn(C)c5)ccc4cn3)ccn2)CC1 the IC50 (second compound 0.0316 µM) was > 0.1 µM, the IC50 (second compound 0.1 µM) was > 0.1 µM and the IC50 (second compound 0.316 µM) was < 0.000316 µM. The IC50 (second compound 1 µM) was < 0.000316 µM, the IC50 (second compound 3.16 µM) was < 0.000316 µM and the IC50 (second compound 10 µM) was < 0.000316 µM. For the same molecule, the viability, T/C (second compound 0.0316 µM, first compound 0.000316 µM) was 129%, the viability, T/C (second compound 0.0316 µM, first compound 0.001 µM) was 116% and the viability, T/C [1] was 107%. It also gave a viability, T/C [2] of 90.2%, a viability, T/C [3] of 87.8% and a viability, T/C [4] of 69.7%. It also gave a viability, T/C (second compound 0.1 µM, first compound 0.000316 µM) of 111%, a viability, T/C (second compound 0.1 µM, first compound 0.001 µM) of 97.2% and a viability, T/C [7] of 94.8%. For the same molecule, the viability, T/C [8] was 93.5%, the viability, T/C [9] was 87.7% and the viability, T/C [10] was 81.2%. It also gave a viability, T/C (second compound 0.316 µM, first compound 0.000316 µM) of 46%, a viability, T/C (second compound 0.316 µM, first compound 0.001 µM) of 39.1% and a viability, T/C [13] of 43.5%. It also gave a viability, T/C [14] of 40.1%, a viability, T/C [15] of 35.3% and a viability, T/C [16] of 35.6%. The viability, T/C (second compound 1 µM, first compound 0.000316 µM) was 0.38%, the viability, T/C (second compound 1 µM, first compound 0.001 µM) was 0.8% and the viability, T/C [19] was 0.73%. The viability, T/C [20] was 0.22%, the viability, T/C [21] was 0.2% and the viability, T/C [22] was 1.42%. For the same molecule, the viability, T/C (second compound 3.16 µM, first compound 0.000316 µM) was 0.1%, the viability, T/C (second compound 3.16 µM, first compound 0.001 µM) was 0.5% and the viability, T/C [25] was 0.12%. The viability, T/C [26] was 0.08%, the viability, T/C [27] was 0.08% and the viability, T/C [28] was 0.16%. It also gave a viability, T/C (second compound 10 µM, first compound 0.000316 µM) of 0.12%, a viability, T/C (second compound 10 µM, first compound 0.001 µM) of 0.13% and a viability, T/C [31] of 0.82%. The viability, T/C [32] was 0.14%, the viability, T/C [33] was 0.13% and the viability, T/C [34] was 0.15%.
